Tested on: ceftazidime-resistant E. coli E24
Assay: E. coli-induced mouse bacteremia
[1] = ceftazidime 5 mg/kg i.p., 8 h of drug treatment

## CC(C)(O/N=C(\C(=O)N[C@@H]1C(=O)N2C(C(=O)[O-])=C(C[n+]3ccccc3)CS[C@H]12)c1csc(N)n1)C(=O)O [Ceftazidime]
Ceftazidime 5 mg/kg i.p. 2 h after i.p. E. coli E24
  loss of mice (mortality): 85.7%
[1]
  bacterial load in the blood: approximately 1 × 10^9 CFU/ml
  bacterial load in the lung, liver, spleen, and kidney tissues: approximately 1 × 10^9 CFU/g

Reference: publication PMC11176561 (Computational and Structural Biotechnology Journal, 2024)
